Experimental data taken from PubChem BioAssay (NCI).
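1) Cells in 96-well plates. 2) Compound, 48 h, 5 concentrations. 3) Linear interpolation between surrounding doses. 4) Unreached endpoint = highest concentration. Abbreviation: GI50, concentration required for 50% inhibition of growth. TGI denotes the concentration required for complete inhibition of growth.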

How the values were obtained:
Experiment in all cases: growth of human tumour cells (NCI), 48 h
[1] = test system: HT29 colon
[2] = test system: MCF7 breast
[3] = test system: NCI/ADR-RES ovarian
[4] = test system: UACC-62 melanoma
[5] = test system: SF-268 CNS
[6] = test system: RPMI-8226 leukemia
[7] = test system: OVCAR-4 ovarian
[8] = test system: SN12C renal
[9] = test system: RXF 393 renal
[10] = test system: SR leukemia
[11] = test system: NCI-H23 lung
[12] = test system: CAKI-1 renal
[13] = test system: TK-10 renal
[14] = test system: ACHN renal
[15] = test system: BT-549 breast
[16] = test system: SK-MEL-5 melanoma
[17] = test system: SW-620 colon
[18] = test system: SK-OV-3 ovarian
[19] = test system: EKVX NSCLC
[20] = test system: MOLT-4 leukemia
[21] = test system: OVCAR-5 ovarian
[22] = test system: HCC-2998 colon
[23] = test system: HL-60(TB) leukemia
[24] = test system: CCRF-CEM leukemia
[25] = test system: HOP-92 NSCLC
[26] = test system: SNB-19 CNS
[27] = test system: T-47D breast
[28] = test system: U251 CNS
[29] = test system: MDA-MB-468 breast
[30] = test system: OVCAR-8 ovarian
[31] = test system: UACC-257 melanoma
[32] = test system: MDA-MB-435
[33] = test system: KM12 colon
[34] = test system: SF-295 CNS
[35] = test system: NCI-H522 lung
[36] = test system: K-562 leukemia
[37] = test system: HOP-62 NSCLC
[38] = test system: COLO 205 colon
[39] = test system: A498 renal
[40] = test system: NCI-H460 lung
[41] = test system: MALME-3M melanoma
[42] = test system: M14 melanoma
[43] = test system: 786-0 renal
[44] = test system: DU-145 prostate
[45] = test system: HCT-116 colon
[46] = test system: A549 NSCLC
[47] = test system: SK-MEL-28 melanoma
[48] = test system: HS 578T breast
[49] = test system: IGROV1 ovarian
[50] = test system: HCT-15 colon
[51] = test system: NCI-H226 lung
[52] = test system: SF-539 CNS
[53] = test system: OVCAR-3 ovarian
[54] = test system: LOX IMVI melanoma
[55] = test system: PC-3 prostate

## c1n[nH]cc1-c1nc2ccc3[nH]ncc3c2c2c1CC1(CCOCC1)CC2
[1]
  GI50: 12.5 µM
  TGI: > 100 µM
[2]
  GI50: 13 µM
  TGI: 40.9 µM
[3]
  GI50: 58.3 µM
  TGI: > 100 µM
[4]
  GI50: 4.37 µM
  TGI: 15.8 µM
[5]
  GI50: 16.6 µM
  TGI: 41.2 µM
[6]
  GI50: 11.1 µM
  TGI: 42.7 µM
[7]
  GI50: 23.4 µM
  TGI: 89.2 µM
[8]
  GI50: 13.3 µM
  TGI: 44.3 µM
[9]
  GI50: 3.55 µM
  TGI: 16.1 µM
[10]
  GI50: 3.33 µM
  TGI: 15.2 µM
[11]
  GI50: 13.8 µM
  TGI: 28.8 µM
[12]
  GI50: 17.3 µM
  TGI: 38.5 µM
[13]
  GI50: 8.2 µM
  TGI: > 100 µM
[14]
  GI50: 7.72 µM
  TGI: > 100 µM
[15]
  GI50: 5.05 µM
  TGI: 18.9 µM
[16]
  GI50: 14.8 µM
  TGI: 28.7 µM
[17]
  GI50: 5.05 µM
  TGI: > 100 µM
[18]
  GI50: 4.09 µM
  TGI: 60.2 µM
[19]
  GI50: 19.2 µM
  TGI: 54.4 µM
[20]
  GI50: 13.4 µM
  TGI: 42.7 µM
[21]
  GI50: 27.7 µM
  TGI: 92.3 µM
[22]
  GI50: 12.1 µM
  TGI: 32 µM
[23]
  GI50: 8.38 µM
  TGI: 28.5 µM
[24]
  GI50: 22.1 µM
  TGI: 80.9 µM
[25]
  GI50: 13.4 µM
  TGI: 64.1 µM
[26]
  GI50: 19.3 µM
  TGI: 71.2 µM
[27]
  GI50: 13 µM
  TGI: 55.8 µM
[28]
  GI50: 11.4 µM
  TGI: > 100 µM
[29]
  GI50: 10.7 µM
  TGI: 23.2 µM
[30]
  GI50: 13.3 µM
  TGI: 32.6 µM
[31]
  GI50: 14.7 µM
  TGI: 36.5 µM
[32]
  GI50: 11.6 µM
  TGI: 25.4 µM
[33]
  GI50: 19.2 µM
  TGI: 47.8 µM
[34]
  GI50: 24.9 µM
  TGI: 71.1 µM
[35]
  GI50: 4.84 µM
  TGI: 21.2 µM
[36]
  GI50: 16.9 µM
  TGI: > 100 µM
[37]
  GI50: 15.4 µM
  TGI: 43.3 µM
[38]
  GI50: 5.62 µM
  TGI: 22.2 µM
[39]
  GI50: 6.66 µM
  TGI: 22.4 µM
[40]
  GI50: 10.1 µM
  TGI: 26.4 µM
[41]
  GI50: 14.1 µM
  TGI: 27.9 µM
[42]
  GI50: 6.24 µM
  TGI: 20.9 µM
[43]
  GI50: 14.9 µM
  TGI: 43.1 µM
[44]
  GI50: 17.9 µM
  TGI: > 100 µM
[45]
  GI50: 4.62 µM
  TGI: > 100 µM
[46]
  GI50: 22.8 µM
  TGI: > 100 µM
[47]
  GI50: 12.1 µM
  TGI: 25.6 µM
[48]
  GI50: 7.74 µM
  TGI: 37.5 µM
[49]
  GI50: 19.8 µM
  TGI: 69.6 µM
[50]
  GI50: 19.8 µM
  TGI: > 100 µM
[51]
  GI50: 13.9 µM
  TGI: 39.2 µM
[52]
  GI50: 13.5 µM
  TGI: 27.3 µM
[53]
  GI50: 16.8 µM
  TGI: 65.3 µM
[54]
  GI50: 8.51 µM
  TGI: 21.5 µM
[55]
  GI50: 16.7 µM
  TGI: > 100 µM
